Experimental data as given in ChEMBL document CHEMBL5113431, “Synthesis and initial in vitro evaluation of PSMA-targeting ligands with a modified aromatic moiety at the lysine ε-nitrogen atom” (Bioorg Med Chem Lett, 2022).

Target: Glutamate carboxypeptidase 2 (Homo sapiens, UniProt Q04609)
Assay: Inhibition of PSMA in human LNCaP cell extracts using NAAG as substrate by amplex red reagent based assay
Assay type: cell-free
Details: not given; call rule not given here

Sequence of Glutamate carboxypeptidase 2 (Q04609 whole entry): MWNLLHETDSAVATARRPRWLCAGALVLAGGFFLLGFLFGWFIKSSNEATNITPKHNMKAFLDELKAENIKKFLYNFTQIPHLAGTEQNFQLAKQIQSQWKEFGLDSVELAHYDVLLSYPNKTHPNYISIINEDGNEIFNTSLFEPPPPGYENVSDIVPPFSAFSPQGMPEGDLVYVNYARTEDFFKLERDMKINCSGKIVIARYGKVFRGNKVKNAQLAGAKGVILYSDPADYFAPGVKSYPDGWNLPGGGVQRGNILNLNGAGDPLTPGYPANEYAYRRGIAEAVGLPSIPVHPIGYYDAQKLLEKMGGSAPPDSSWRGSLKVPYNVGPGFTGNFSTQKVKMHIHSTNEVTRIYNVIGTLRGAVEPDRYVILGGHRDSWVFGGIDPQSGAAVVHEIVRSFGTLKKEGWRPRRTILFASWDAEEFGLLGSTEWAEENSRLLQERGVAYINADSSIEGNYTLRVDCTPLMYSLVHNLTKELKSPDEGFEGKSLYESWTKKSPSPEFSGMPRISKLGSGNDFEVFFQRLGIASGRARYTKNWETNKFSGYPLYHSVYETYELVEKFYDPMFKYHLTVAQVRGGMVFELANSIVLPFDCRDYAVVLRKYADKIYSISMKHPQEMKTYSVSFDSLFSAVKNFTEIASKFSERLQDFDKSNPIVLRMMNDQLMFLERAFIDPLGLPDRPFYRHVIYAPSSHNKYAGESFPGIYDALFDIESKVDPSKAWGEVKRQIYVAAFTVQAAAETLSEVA

First: [N-]=[N+]=NCCCNC(=O)[C@H](Cc1ccccc1)NC(=O)[C@H](Cc1ccccc1)NC(=O)CCC(=O)NCCCCCC(=O)N(CCCC[C@H](NC(=O)N[C@@H](CCC(=O)O)C(=O)O)C(=O)O)Cc1ccc([N+](=O)[O-])cc1
Second: [N-]=[N+]=NCCCNC(=O)[C@H](Cc1ccccc1)NC(=O)[C@H](Cc1ccccc1)NC(=O)CCC(=O)NCCCCCC(=O)N(CCCC[C@H](NC(=O)N[C@@H](CCC(=O)O)C(=O)O)C(=O)O)Cc1cccc([N+](=O)[O-])c1
The IC50 of the first is 1.5-fold higher: 35 nM for the first, 23 nM for the second.

Compared with `COc1ccc(CN(CCCC[C@H](NC(=O)N[C@@H](CCC(=O)O)C(=O)O)C(=O)O)C(=O)CCCCCNC(=O)CCC(=O)N[C@@H](Cc2ccccc2)C(=O)N[C@@H](Cc2ccccc2)C(=O)NCCCN=[N+]=[N-])cc1`, `CCOc1ccc(CN(CCCC[C@H](NC(=O)N[C@@H](CCC(=O)O)C(=O)O)C(=O)O)C(=O)CCCCCNC(=O)CCC(=O)N[C@@H](Cc2ccccc2)C(=O)N[C@@H](Cc2ccccc2)C(=O)NCCCN=[N+]=[N-])cc1` is 2.2-fold lower in IC50: 112 nM for the first, 51 nM for the second.

Going from `COc1ccc(CN(CCCC[C@H](NC(=O)N[C@@H](CCC(=O)O)C(=O)O)C(=O)O)C(=O)CCCCCNC(=O)CCC(=O)N[C@@H](Cc2ccccc2)C(=O)N[C@@H](Cc2ccccc2)C(=O)NCCCN=[N+]=[N-])cc1OC` to `COc1ccc(CN(CCCC[C@H](NC(=O)N[C@@H](CCC(=O)O)C(=O)O)C(=O)O)C(=O)CCCCCNC(=O)CCC(=O)N[C@@H](Cc2ccccc2)C(=O)N[C@@H](Cc2ccccc2)C(=O)NCCCN=[N+]=[N-])c(OC)c1`, the IC50 falls from 88 nM to 23 nM (3.8-fold).

Going from `[N-]=[N+]=NCCCNC(=O)[C@H](Cc1ccccc1)NC(=O)[C@H](Cc1ccccc1)NC(=O)CCC(=O)NCCCCCC(=O)N(CCCC[C@H](NC(=O)N[C@@H](CCC(=O)O)C(=O)O)C(=O)O)Cc1ccccc1[N+](=O)[O-]` to `[N-]=[N+]=NCCCNC(=O)[C@H](Cc1ccc(O)cc1)NC(=O)[C@H](Cc1ccccc1)NC(=O)CCC(=O)NCCCCCC(=O)N(CCCC[C@H](NC(=O)N[C@@H](CCC(=O)O)C(=O)O)C(=O)O)Cc1ccccc1[N+](=O)[O-]`, the IC50 rises from 16 nM to 101 nM (6.3-fold).

Going from `COc1ccccc1CN(CCCC[C@H](NC(=O)N[C@@H](CCC(=O)O)C(=O)O)C(=O)O)C(=O)CCCCCNC(=O)CCC(=O)N[C@@H](Cc1ccccc1)C(=O)N[C@@H](Cc1ccccc1)C(=O)NCCCN=[N+]=[N-]` to `[N-]=[N+]=NCCCNC(=O)[C@H](Cc1ccccc1)NC(=O)[C@H](Cc1ccccc1)NC(=O)CCC(=O)NCCCCCC(=O)N(CCCC[C@H](NC(=O)N[C@@H](CCC(=O)O)C(=O)O)C(=O)O)Cc1ccc(O)cc1`, the IC50 falls from 38 nM to 24 nM (1.6-fold).

Going from `[N-]=[N+]=NCCCNC(=O)[C@H](Cc1ccc(O)cc1)NC(=O)[C@H](Cc1ccccc1)NC(=O)CCC(=O)NCCCCCC(=O)N(CCCC[C@H](NC(=O)N[C@@H](CCC(=O)O)C(=O)O)C(=O)O)Cc1ccc(C(=O)O)cc1` to `[N-]=[N+]=NCCCNC(=O)[C@H](Cc1ccccc1)NC(=O)[C@H](Cc1ccccc1)NC(=O)CCC(=O)NCCCCCC(=O)N(CCCC[C@H](NC(=O)N[C@@H](CCC(=O)O)C(=O)O)C(=O)O)Cc1ccc(C(=O)O)cc1`, the IC50 falls from 19 nM to 7 nM (2.7-fold). The second is the more potent here.

`[N-]=[N+]=NCCCNC(=O)[C@H](Cc1ccc(O)c([N+](=O)[O-])c1)NC(=O)[C@H](Cc1ccccc1)NC(=O)CCC(=O)NCCCCCC(=O)N(CCCC[C@H](NC(=O)N[C@@H](CCC(=O)O)C(=O)O)C(=O)O)Cc1ccc(C(=O)O)cc1` and `[N-]=[N+]=NCCCNC(=O)[C@H](Cc1ccc(O)c([N+](=O)[O-])c1)NC(=O)[C@H](Cc1ccccc1)NC(=O)CCC(=O)NCCCCCC(=O)N(CCCC[C@H](NC(=O)N[C@@H](CCC(=O)O)C(=O)O)C(=O)O)Cc1cccc(Cl)c1` are within 1.5-fold of each other in IC50: 2.1 nM for the first, 1.5 nM for the second.

Test system: not listed separately
Assay: Drug uptake in PSMA overexpressing human LNCaP cells at 4 to 40 nM by flow cytometry
Assay type: ADME, cell-based
Details: 0.04 µM, dose 4-40 nM

For `CN1/C(=C/C=C/C=C/C2=[N+](CCCCCC(=O)NCc3cn(CCCNC(=O)[C@H](Cc4ccccc4)NC(=O)[C@H](Cc4ccccc4)NC(=O)CCC(=O)NCCCCCC(=O)N(CCCC[C@H](NC(=O)N[C@@H](CCC(=O)O)C(=O)O)C(=O)O)Cc4ccccc4[N+](=O)[O-])nn3)c3ccc(S(=O)(=O)[O-])cc3C2(C)C)C(C)(C)c2cc(S(=O)(=O)O)ccc21`, the Drug uptake was “Active”.
With `CN1/C(=C/C=C/C=C/C2=[N+](CCCCCC(=O)NCc3cn(CCCNC(=O)[C@H](Cc4ccc(O)cc4)NC(=O)[C@H](Cc4ccccc4)NC(=O)CCC(=O)NCCCCCC(=O)N(CCCC[C@H](NC(=O)N[C@@H](CCC(=O)O)C(=O)O)C(=O)O)Cc4cccc(Cl)c4)nn3)c3ccc(S(=O)(=O)[O-])cc3C2(C)C)C(C)(C)c2cc(S(=O)(=O)O)ccc21` the Drug uptake was “Active”.
For `CN1/C(=C/C=C/C=C/C2=[N+](CCCCCC(=O)NCc3cn(CCCNC(=O)[C@H](Cc4ccccc4)NC(=O)[C@H](Cc4ccccc4)NC(=O)CCC(=O)NCCCCCC(=O)N(CCCC[C@H](NC(=O)N[C@@H](CCC(=O)O)C(=O)O)C(=O)O)Cc4ccc(C(=O)O)cc4)nn3)c3ccc(S(=O)(=O)[O-])cc3C2(C)C)C(C)(C)c2cc(S(=O)(=O)O)ccc21`, the Drug uptake was “Active”.
